Active and inactive are the calls of the source. No cut-off for these calls is given here.
How the values were obtained:
BaF3 [1] = experiment: Antiproliferative activity against mouse BaF3 cells harboring EGFR C797S/L858R/T790M mutant; format: functional, cell-based
BaF3 [2] = experiment: Antiproliferative activity against mouse BaF3 cells harboring EGFR C797S/Del19/T790M mutant; format: functional, cell-based
[3] = target: T1, Epidermal growth factor receptor (Homo sapiens, UniProt P00533); experiment: Inhibition of wild-type EGFR (unknown origin)
T1 sequence (P00533 whole entry): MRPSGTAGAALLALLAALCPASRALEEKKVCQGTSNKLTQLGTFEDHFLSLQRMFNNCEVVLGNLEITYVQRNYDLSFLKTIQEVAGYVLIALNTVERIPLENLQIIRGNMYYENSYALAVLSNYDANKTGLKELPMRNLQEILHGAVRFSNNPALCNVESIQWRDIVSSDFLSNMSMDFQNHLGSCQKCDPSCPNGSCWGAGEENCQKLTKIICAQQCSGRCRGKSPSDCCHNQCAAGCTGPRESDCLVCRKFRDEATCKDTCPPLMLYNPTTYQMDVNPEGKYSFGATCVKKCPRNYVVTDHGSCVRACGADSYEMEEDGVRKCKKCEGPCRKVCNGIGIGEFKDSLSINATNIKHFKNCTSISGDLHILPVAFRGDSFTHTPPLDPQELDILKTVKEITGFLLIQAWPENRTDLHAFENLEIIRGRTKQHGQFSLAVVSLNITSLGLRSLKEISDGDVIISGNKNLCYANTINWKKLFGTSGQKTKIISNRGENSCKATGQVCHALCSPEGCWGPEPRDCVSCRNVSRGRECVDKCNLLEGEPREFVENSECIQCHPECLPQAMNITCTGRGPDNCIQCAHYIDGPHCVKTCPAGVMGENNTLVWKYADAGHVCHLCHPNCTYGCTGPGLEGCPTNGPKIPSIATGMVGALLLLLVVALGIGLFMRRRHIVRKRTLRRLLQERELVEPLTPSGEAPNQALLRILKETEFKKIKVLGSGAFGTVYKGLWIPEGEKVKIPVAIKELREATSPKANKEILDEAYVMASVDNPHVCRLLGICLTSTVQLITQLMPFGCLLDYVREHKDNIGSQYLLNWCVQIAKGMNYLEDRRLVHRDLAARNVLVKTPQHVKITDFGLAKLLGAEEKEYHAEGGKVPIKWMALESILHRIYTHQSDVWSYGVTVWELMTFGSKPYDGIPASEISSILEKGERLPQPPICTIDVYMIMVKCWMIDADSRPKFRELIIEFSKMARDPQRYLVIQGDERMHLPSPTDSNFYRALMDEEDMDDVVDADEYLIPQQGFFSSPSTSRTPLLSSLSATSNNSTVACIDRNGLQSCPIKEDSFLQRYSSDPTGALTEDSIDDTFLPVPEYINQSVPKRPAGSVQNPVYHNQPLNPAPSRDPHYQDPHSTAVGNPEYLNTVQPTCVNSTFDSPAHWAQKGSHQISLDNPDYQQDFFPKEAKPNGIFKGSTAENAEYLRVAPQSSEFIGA

[4] = target: Epidermal growth factor receptor (Homo sapiens, UniProt P00533, L858R/T790M); experiment: Inhibition of EGFR T790M/L858R mutant (unknown origin)
Chain of Epidermal growth factor receptor (Homo sapiens, UniProt P00533, L858R/T790M) (P00533 25-1210 T790M/L858R limits assumed): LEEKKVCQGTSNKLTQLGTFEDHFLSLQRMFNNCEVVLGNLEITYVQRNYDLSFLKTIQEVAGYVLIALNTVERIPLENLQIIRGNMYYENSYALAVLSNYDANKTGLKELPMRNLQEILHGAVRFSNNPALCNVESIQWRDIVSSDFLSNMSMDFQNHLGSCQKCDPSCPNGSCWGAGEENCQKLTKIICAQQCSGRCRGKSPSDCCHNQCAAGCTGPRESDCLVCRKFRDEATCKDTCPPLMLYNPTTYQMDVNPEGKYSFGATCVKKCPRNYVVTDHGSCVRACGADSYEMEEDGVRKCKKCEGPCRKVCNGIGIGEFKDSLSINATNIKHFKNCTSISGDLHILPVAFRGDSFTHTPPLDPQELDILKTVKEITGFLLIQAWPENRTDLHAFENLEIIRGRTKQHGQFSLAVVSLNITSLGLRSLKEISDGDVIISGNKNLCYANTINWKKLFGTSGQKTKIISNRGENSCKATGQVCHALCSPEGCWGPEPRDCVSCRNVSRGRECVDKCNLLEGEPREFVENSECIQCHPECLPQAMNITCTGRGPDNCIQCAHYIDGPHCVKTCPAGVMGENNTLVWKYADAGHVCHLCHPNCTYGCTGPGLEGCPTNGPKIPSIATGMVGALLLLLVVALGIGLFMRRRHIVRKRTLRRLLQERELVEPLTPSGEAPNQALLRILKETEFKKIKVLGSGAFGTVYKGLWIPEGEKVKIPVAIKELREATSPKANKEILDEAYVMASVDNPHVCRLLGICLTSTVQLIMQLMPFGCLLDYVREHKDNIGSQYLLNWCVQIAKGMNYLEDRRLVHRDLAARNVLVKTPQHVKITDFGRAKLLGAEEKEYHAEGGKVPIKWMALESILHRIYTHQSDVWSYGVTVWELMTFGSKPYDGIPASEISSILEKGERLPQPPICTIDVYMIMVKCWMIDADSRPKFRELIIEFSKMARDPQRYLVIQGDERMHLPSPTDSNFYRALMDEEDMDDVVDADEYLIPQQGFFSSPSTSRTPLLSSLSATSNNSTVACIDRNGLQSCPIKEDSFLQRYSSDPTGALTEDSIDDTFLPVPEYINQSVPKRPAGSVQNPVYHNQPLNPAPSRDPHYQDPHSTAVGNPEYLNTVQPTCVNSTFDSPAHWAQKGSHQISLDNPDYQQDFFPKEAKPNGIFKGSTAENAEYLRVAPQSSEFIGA

NCI-H1975 [5] = experiment: Antiproliferative activity against human NCI-H1975 cells assessed as inhibition of sphere formation incubated for 72 hrs by CCK8 assay; format: functional, cell-based; details: NCI-H1975, 72 h
BaF3 [6] = experiment: Induction of cell death in inner region of cell spheres of mouse BaF3 cells harboring EGFR L858R/T790M/C797S mutant at 10 nM by Calcein AM/PI staining based analysis; format: functional
NCI-H1975 [7] = experiment: Induction of apoptosis in human NCI-H1975 cells assessed as increase in green fluorescence at 10 to 25 nM by TUNNEL method; format: functional, cell-based; details: dose 10-25 nM
NCI-H1975 [8] = experiment: Induction of apoptosis in human NCI-H1975 cells assessed as early apoptotic cells at 10 nM incubated for 24 hrs by Annexin V-FITC/PI staining based flow cytometry (reference value: 2.18 %); format: functional
NCI-H1975 [9] = experiment: Induction of apoptosis in human NCI-H1975 cells assessed as necrotic cells at 10 nM incubated for 24 hrs by Annexin V-FITC/PI staining based flow cytometry (reference value: 2.89 %); format: functional
BaF3 [10] = experiment: Induction of apoptosis in mouse BaF3 cells harboring EGFR L858R/T790M/C797S mutant assessed as viable cells at 10 nM incubated for 24 hrs by Annexin V-FITC/PI staining based flow cytometry (reference value: 99.77 %); format: functional; details: read-out: Activity
BaF3 [11] = experiment: Induction of apoptosis in mouse BaF3 cells harboring EGFR L858R/T790M/C797S mutant assessed as late apoptotic cells at 10 nM incubated for 24 hrs by Annexin V-FITC/PI staining based flow cytometry (reference value: 0.02 %); format: functional
BaF3 [12] = experiment: Induction of apoptosis in mouse BaF3 cells harboring EGFR L858R/T790M/C797S mutant assessed as necrotic cells at 10 nM incubated for 24 hrs by Annexin V-FITC/PI staining based flow cytometry (reference value: 0.06 %); format: functional
NCI-H1975 [13] = experiment: Inhibition of cell migration in human NCI-H1975 cells at 10 nM incubated for 24 hrs by scratch healing assay relative to control; format: functional
NCI-H1975 [14] = experiment: Inhibition of cell invasion in human NCI-H1975 cells by transwell assay; format: functional, cell-based
BaF3 [15] = experiment: Inhibition of cell invasion in mouse BaF3 cells harboring EGFR L858R/T790M/C797S mutant by transwell assay; format: functional, cell-based
BaF3 [16] = experiment: Inhibition of cell migration in mouse BaF3 cells harboring EGFR L858R/T790M/C797S mutant by transwell assay; format: functional, cell-based
BaF3 [17] = experiment: Antitumor activity against mouse BaF3 cells allografted in nude mouse assessed as reduction of tumor volume at 50 mg/kg, po measured after 2 to 7 days; format: functional, organism-based; details: time 2-7 day
BaF3 [18] = experiment: Antitumor activity against mouse BaF3 cells allografted in nude mouse assessed as reduction of tumor weight at 50 mg/kg, po measured for 7 days; format: functional, organism-based; details: time 7.0 day
[19] = Toxicity in nude mouse allografted with mouse BaF3 cells assessed as body weight loss at 50 mg/kg, po measured for 7 days; format: organism-based; details: in vivo, 168 h, time 7 day
NCI-H1975 [20] = experiment: Antitumor activity against human NCI-H1975 cells xenografted in nude mouse at 50 mg/kg, po measured for 7 days relative to control; format: functional; details: NCI-H1975, 168 h, time 7 day, read-out: TGI
[21] = target: T1, Epidermal growth factor receptor; experiment: Inhibition of EGFR phosphorylation in human NCI-H1975 cells assessed as reduction in red fluorescence incubated for 24 hrs by immunofluorescence analysis; format: cell-based
BaF3 [22] = experiment: Inhibition of EGFR L858R/T790M/C797S mutant in mouse BaF3 cells assessed as reduction in ERK phosphorylation incubated for 24 hrs by Western blot analysis; format: cell-based; details: dose <= 100.0 nM
BaF3 [23] = experiment: Inhibition of EGFR L858R/T790M/C797S mutant in mouse BaF3 cells assessed as reduction in AKT phosphorylation incubated for 24 hrs by Western blot analysis; format: cell-based; details: dose <= 100.0 nM
[24] = target: T1, Epidermal growth factor receptor; experiment: Inhibition of EGFR in human NCI-H1975 cells assessed as reduction in ERK phosphorylation incubated for 24 hrs by Western blot analysis; format: cell-based; details: dose <= 50.0 nM
[25] = target: T1, Epidermal growth factor receptor; experiment: Inhibition of EGFR in human NCI-H1975 cells assessed as reduction in AKT phosphorylation incubated for 24 hrs by Western blot analysis; format: cell-based; details: dose <= 50.0 nM
NCI-H1975 [26] = experiment: Inhibition of neovascularization in human NCI-H1975 cells xenografted in nude mouse at 50 mg/kg, po for 7 days by IHC analysis; format: functional, organism-based; details: time 7.0 day
BaF3 [27] = experiment: Inhibition of neovascularization in mouse BaF3 cells allografted in nude mouse at 50 mg/kg, po for 7 days; format: functional, organism-based; details: time 7.0 day
[28] = Cytotoxicity against human HK-2 cells; format: toxicity, cell-based
[29] = Cytotoxicity against human HaCaT cells; format: toxicity, cell-based
[30] = Cytotoxicity against human HUVEC cells; format: toxicity, cell-based
[31] = Cytotoxicity against VEGF-stimulated human HUVEC cells; format: toxicity, cell-based
[32] = Toxicity in nude mouse allografted with mouse BaF3 cells assessed as damage in liver at 50 mg/kg, po for 7 days by H and E staining based analysis; format: organism-based; details: in vivo, 168 h, time 7 day
[33] = Toxicity in nude mouse allografted with mouse BaF3 cells assessed as damage in heart at 50 mg/kg, po for 7 days by H and E staining based analysis; format: organism-based; details: in vivo, 168 h, time 7 day
[34] = Toxicity in nude mouse allografted with mouse BaF3 cells assessed as damage in kidney at 50 mg/kg, po for 7 days by H and E staining based analysis; format: organism-based; details: in vivo, 168 h, time 7 day
[35] = Toxicity in nude mouse allografted with mouse BaF3 cells assessed as lesion in liver at 50 mg/kg, po for 7 days by H and E staining based analysis; format: organism-based; details: in vivo, 168 h, time 7 day
[36] = Toxicity in nude mouse allografted with mouse BaF3 cells assessed as lesion in heart at 50 mg/kg, po for 7 days by H and E staining based analysis; format: organism-based; details: in vivo, 168 h, time 7 day
[37] = Toxicity in nude mouse allografted with mouse BaF3 cells assessed as lesion in spleen at 50 mg/kg, po for 7 days by H and E staining based analysis; format: organism-based; details: in vivo, 168 h, time 7 day
[38] = Toxicity in nude mouse allografted with mouse BaF3 cells assessed as lesion in lung at 50 mg/kg, po for 7 days by H and E staining based analysis; format: organism-based; details: in vivo, 168 h, time 7 day
[39] = Toxicity in nude mouse allografted with mouse BaF3 cells assessed as lesion in kidney at 50 mg/kg, po for 7 days by H and E staining based analysis; format: organism-based; details: in vivo, 168 h, time 7 day
Homo sapiens = organism: Homo sapiens; experiment: Binding affinity to FGFR (unknown origin) at 100 nM by kinase profiling analysis
[40] = target: Platelet-derived growth factor receptor beta (Homo sapiens) (UniProt P09619); experiment: Binding affinity to PDGFR (unknown origin) at 100 nM by kinase profiling analysis
Chain of Platelet-derived growth factor receptor beta (Homo sapiens) (P09619 whole entry): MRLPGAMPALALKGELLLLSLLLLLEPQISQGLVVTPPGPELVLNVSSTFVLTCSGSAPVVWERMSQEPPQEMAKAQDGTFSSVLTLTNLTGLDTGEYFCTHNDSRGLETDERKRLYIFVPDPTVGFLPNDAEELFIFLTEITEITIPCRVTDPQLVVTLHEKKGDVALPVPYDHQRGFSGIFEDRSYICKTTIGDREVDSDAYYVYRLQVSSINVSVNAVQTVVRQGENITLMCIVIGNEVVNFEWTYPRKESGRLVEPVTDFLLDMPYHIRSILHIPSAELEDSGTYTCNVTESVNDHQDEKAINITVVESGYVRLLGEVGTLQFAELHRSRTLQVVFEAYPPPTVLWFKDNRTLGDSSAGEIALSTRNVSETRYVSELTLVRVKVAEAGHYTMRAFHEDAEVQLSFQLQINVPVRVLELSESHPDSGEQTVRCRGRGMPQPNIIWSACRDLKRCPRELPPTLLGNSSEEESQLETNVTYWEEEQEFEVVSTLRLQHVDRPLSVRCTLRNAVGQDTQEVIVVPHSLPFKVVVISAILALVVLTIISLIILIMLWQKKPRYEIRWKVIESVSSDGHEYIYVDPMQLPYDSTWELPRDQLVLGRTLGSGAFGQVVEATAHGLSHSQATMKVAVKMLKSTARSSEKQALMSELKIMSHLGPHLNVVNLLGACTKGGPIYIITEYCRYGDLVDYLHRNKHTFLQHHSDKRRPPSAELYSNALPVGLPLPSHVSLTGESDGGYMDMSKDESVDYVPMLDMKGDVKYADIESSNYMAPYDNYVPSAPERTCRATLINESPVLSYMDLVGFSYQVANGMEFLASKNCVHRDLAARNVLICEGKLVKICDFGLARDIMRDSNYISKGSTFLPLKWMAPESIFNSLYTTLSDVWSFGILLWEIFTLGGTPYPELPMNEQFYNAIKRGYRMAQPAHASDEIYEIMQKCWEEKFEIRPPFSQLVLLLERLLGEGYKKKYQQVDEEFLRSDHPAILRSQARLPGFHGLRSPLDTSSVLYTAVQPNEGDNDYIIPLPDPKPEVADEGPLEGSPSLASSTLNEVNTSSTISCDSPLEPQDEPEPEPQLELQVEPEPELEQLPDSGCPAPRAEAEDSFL

- IC50 (BaF3 [1]): 4 nM
- IC50 (BaF3 [2]): 3 nM
- IC50 [3]: 70.7 nM
- IC50 [4]: 4.76 nM
- IC50 (NCI-H1975 [5]): 33.8 nM
- inhibition [21]: Active
- inhibition [24]: Dose-Dependent Effect
- inhibition [25]: Dose-Dependent Effect
- Activity (Homo sapiens): Active
- Activity [40]: Active
SMILES: CN1CCCN(c2ccc(Nc3ncc(Br)c(Nc4ccccc4NS(=O)(=O)C4CC4)n3)cc2)CC1
- Activity (BaF3 [6]): Active
- Activity (NCI-H1975 [7]): Active
- Activity (NCI-H1975 [8]): 13.31%
- Activity (NCI-H1975 [9]): 2.98%
- viability at 0.01 µM (BaF3 [10]): 20.7%
- Activity (BaF3 [11]): 69.42%
- Activity (BaF3 [12]): 0.48%
- inhibition at 0.01 µM (NCI-H1975 [13]): 92%
- inhibition (NCI-H1975 [14]): Active
- inhibition (BaF3 [15]): Active
- inhibition (BaF3 [16]): Active
- Activity (BaF3 [17]): Active
- Activity (BaF3 [18]): Active
- Activity [19]: Non-Toxic
- inhibition in vivo at 50 mg/kg (NCI-H1975 [20]): 83.5%
- inhibition (BaF3 [22]): Dose-Dependent Effect
- inhibition (BaF3 [23]): Dose-Dependent Effect
- inhibition (NCI-H1975 [26]): Active
- inhibition (BaF3 [27]): Active
- IC50 [28]: 2780 nM
- IC50 [29]: 5410 nM
- IC50 [30]: 2520 nM
- IC50 [31]: 799 nM
- Activity [32]: Non-Toxic
- Activity [33]: Non-Toxic
- Activity [34]: Non-Toxic
- Activity [35]: Non-Toxic
- Activity [36]: Non-Toxic
- Activity [37]: Non-Toxic
- Activity [38]: Non-Toxic
- Activity [39]: Non-Toxic
